Results published in patent US20200236933A1, “USE OF A NON-IONIC SURFACTANT WHICH IS A POLYOL DERIVATIVE AS A PLANT GROWTH STIMULATING AGENT OR AS AN ADJUVANT” (priority 2017, published 2020).

Tests used:
soybeans = test: Germination of soybeans after immersion treatment; type: in vivo; settings: soybeans immersed 1 h in 0.75% solution
Procedure: The beans are next dried in a heating tunnel at 45° C. for one hour. Four batch repetitions of 15 beans are deposited on Petri dishes containing a medium composed of 2% Agar Agar and 98% water.
The Petri dishes are kept at ambient temperature and in darkness. Each day the number of germinated beans (having a radicle) is counted.

maize seeds = test: Germination of maize seeds after immersion treatment (Example 2); type: in vivo; settings: maize seeds immersed 1 h in 0.75% solution
Procedure: The seeds are next dried in a heating tunnel at 45° C. for one hour. Four batch repetitions of 16 seeds are deposited on Petri dishes containing a medium composed of 2% Agar Agar and 98% water.
(§1) The Petri dishes are kept at ambient temperature and in darkness. Each day the number of seeds that have germinated (having a radicle) is counted.

parsley seeds = test: Germination of parsley seeds after immersion treatment; type: in vivo; settings: parsley seeds immersed 1 h in 0.75% solution
Procedure: The seeds are next dried in a heating tunnel at 45° C. for one hour. Two batch repetitions of 48 seeds are deposited on Petri dishes containing a medium composed of 2% Agar Agar and 98% water.
as §1

strawberry leaves = test: Spreading of an aqueous solution on a leaf; type: in vivo; settings: 0.75% solution sprayed on strawberry leaves
Procedure: Strawberry plants in pots are grown in a climate-controlled chamber in the following conditions: 23° C. and a photoperiod of 16 h/8 h.

parsley plants = test: Protein content of parsley; type: in vivo; settings: 40 ml of 0.75% solution every three days, 23 days
Procedure: Each batch consists of four pots. After 23 days of treatment the leaves are cut and an analysis of the amount of protein is carried out.

[1] = tested on: winter barley (Sobell variety); test: Yield of winter barley in climate controlled chamber; type: in vivo; settings: 3 l/ha of 3% solution sprayed at commencement of tillering
Procedure: Assays in a climate controlled chamber (temperature 22° C./20° C., photoperiod 16 h/8 h, 25,000 lux) were carried out on winter barley (Sobell variety, Arvalis). The barley was sowed in containers of 1 meter by 1 meter.
The plants were then watered every 2 weeks with the same amount of water for both control batch and treated batch.
The yields were then calculated as the ratio of the weight of harvested seeds to the sowed area. This ratio is expressed in q/ha.

rape leaf = test: Penetration of a colored aqueous solution through the cuticle; settings: 2.5% solution, 2 h on rape leaf then wiped
Procedure: Rape, a plant known for having a thick cuticle, was chosen in order to test the effectiveness of the invention as a penetrating agent.
A colorant in aqueous solution was deposited on a rape leaf, then left for 2 h and then wiped.

[2] = Drift limitation: size of drops after spraying; type: physicochemical; settings: 2.5% with 5% titanium dioxide; 2, 4 and 8 bars
Source text: Increasing pressures (2, 4 and 8 bars) were used in order to test different conditions (FIG. 21: a, b and c respectively). The greater the pressure the more numerous and fine were the drops.

[3] = Formation of foam on preparing the mixture; type: physicochemical; settings: 1% with 1% Cocamidopropyl betaine
Procedure: The two solutions were next stirred in equivalent manner, the photographs being taken before, immediately after stirring and 1 h after stirring.

[4] = Homogenization of the mixture; type: physicochemical; settings: 1% with 2% glycerin colored blue
Source text: The mixtures were next stirred in equivalent manner. Photographs are taken after stirring.

[5] = pH modification of the mixture; type: physicochemical; settings: increasing concentration of the 2.5% sucrose stearate solution added to a solution at pH 9.4
[6] = tested on: detached leaves of Buddleja davidii; test: Persistence of the mixture at the foliar surface; settings: 1% with 0.1% colorant; rinses with water
Procedure: The effect of the invention on the persistence of the mixture was evaluated after spraying a solution colored blue on detached leaves of Buddleja davidii.
After spraying, the leaves are left at ambient temperature until the sprayed solution has evaporated.
Next, several operations of rinsing the leaves with water are carried out. The rinse water is collected after each rinse and photographs are taken to observe and compare the coloration of the rinse waters. An absorbance measurement at 630 nm is also carried out by spectrophotometry.

Aspergillus niger = test: Fungicide effect by antibiogram type method; type: cell-based
Source text: In order to evaluate any impact of the sugar esters used according to the invention on microorganisms, the fungicide effect was searched for by an antibiogram type method. The method consists of: • spreading a solution contaminated with the mold Aspergillus niger on the surface of a Petri dish containing glucose gel growth medium with chloramphenicol. • arrange 4 sterile antibiogram disks of 6 mm diameter per Petri dish. • inoculate with 3 drops (0.071 g) of solution to test or control solution per disk. The dishes are next placed in the incubator at 25° C. for 5 days. Measurement of the inhibitory diameter is carried out every day.

Septoria leaf spot = test: Reduction of phytosanitary products on wheat; type: in vivo, soft winter wheat (GARCIA variety); settings: 25% of recommended dose (0.15 L/ha Priaxor + 0.15 L/ha Reimer Pro) plus 3 L/ha sucrose stearate; start of coming into ear
Procedure: Assays in a climate-controlled chamber were carried out on soft winter wheat (GARCIA variety, Arvalis). The wheat was sowed in containers of 1 meter by 1 meter. […] Priaxor® comprises two active ingredients: fluxapyroxad (belonging to the SDHI family) and pyraclostrobin (belonging to the strobilurin family) and Reimer® Pro comprises the active ingredient metconazole (belonging to the triazole family).
The containers were then taken out of the climate-controlled chamber and disposed near a field having more than 50% of wheat plants diseased with Septoria leaf spot. After 1 day, the containers were placed back in the climate-controlled chamber under controlled conditions.

In the case of sucrose stearate, the “increase of the germination kinetics on average” value (“increase … on average” below) (soybeans) is reported as 25%, the “germinated seeds, treated batch compared with the control batch” value (soybeans; after 1 day) is reported as 4 times and the “increase … on average” value (maize seeds) is reported as 30%. For the same substance, the “germinated seeds, treated batch compared with the control batch” value (maize seeds; after 2 days) was 10 times, the “increase … on average” value (parsley seeds) was 10% and the “germinated seeds, treated batch compared with the control batch” value (parsley seeds; between 4 days and 6 days) was 2 times. The “distribution of the solution on the leaf (spreading of the drops)” value (strawberry leaves) was “distributed evenly over the leaf”, the “passage of the solution onto the lower face compared with the control batch” value (strawberry leaves) was “much greater passage of the solution onto the lower face” and the “increase in the protein amount compared with the control batch” value (parsley plants) was 56%. The Yield [1] was 67.9 q/ha, the yield increase [1] was 25% and the “penetration of the colorant through the cuticle” value (rape leaf) was “enables the colorant to color the leaf and thus to penetrate through the cuticle”. The “size of the drops after spraying” value [2] was “enables an increase the size of the drops”, the “reduction of the volume of foam immediately after stirring” value [3] was 30% and the “homogenization of the mixture” value [4] was “better homogenization of the mixture”. The “pH at which the mixture stabilizes” value [5] was 5.25, the “persistence of the mixture on rinsing” value [6] was “still present even after the 4th rinse” and the Inhibitory diameter (Aspergillus niger; 0.1% solution, D1) was 0 mm. The Inhibitory diameter (Aspergillus niger; 0.1% solution, D2) was 0 mm, the Inhibitory diameter (Aspergillus niger; 0.1% solution, D3) was 0 mm and the Inhibitory diameter (Aspergillus niger; 0.1% solution, D4) was 0 mm. For the same substance, the Inhibitory diameter (Aspergillus niger; 0.1% solution, D5) was 0 mm, the Inhibitory diameter (Aspergillus niger; 1% solution, D1) was 0 mm and the Inhibitory diameter (Aspergillus niger; 1% solution, D2) was 0 mm. It also gave an Inhibitory diameter (Aspergillus niger; 1% solution, D3) of 0 mm, an Inhibitory diameter (Aspergillus niger; 1% solution, D4) of 0 mm and an Inhibitory diameter (Aspergillus niger; 1% solution, D5) of 0 mm. For the same substance, the Inhibitory diameter (Aspergillus niger; 3% solution, D1) was 0 mm, the Inhibitory diameter (Aspergillus niger; 3% solution, D2) was 0 mm and the Inhibitory diameter (Aspergillus niger; 3% solution, D3) was 0 mm. The Inhibitory diameter (Aspergillus niger; 3% solution, D4) was 0 mm, the Inhibitory diameter (Aspergillus niger; 3% solution, D5) was 0 mm and the Inhibitory diameter (Aspergillus niger; 10% solution, D1) was 0 mm. For the same substance, the Inhibitory diameter (Aspergillus niger; 10% solution, D2) was 0 mm, the Inhibitory diameter (Aspergillus niger; 10% solution, D3) was 0 mm and the Inhibitory diameter (Aspergillus niger; 10% solution, D4) was 0 mm. For the same substance, the Inhibitory diameter (Aspergillus niger; 10% solution, D5) was 0 mm, the fungicide effect (Aspergillus niger; whatever the concentrations tested (0.1-10%)) was “no fungicide effect” and the “plants diseased with Septoria leaf spot” value (Septoria leaf spot) was 20%.
